Measurements reported in ChEMBL document CHEMBL1201862, “PubChem BioAssay data set” (2004).
Active and inactive are the calls of the source.

Key:
[1] = target: T1, G-protein coupled receptor 35 (Homo sapiens, UniProt Q9HC97); experiment: GPR35 antagonists blocking zaprinast-driven arrestin recruitment, primary screen, imaging, U2OS, beta-arrestin-GFP, zaprinast agonist (AID 2058); format: functional;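 further: antagonist potency meaning inhibition of agonist-induced arrestin redistribution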
[2] = target: T1, G-protein coupled receptor 35; experiment: SAR Analysis for the identification of Selective Antagonists of ERK1/2 Activity in GPR35-Overexpressing U2OS Cells. [Related pubchem assays: 2079, 2058 ]; format: functional, cell-based
[3] = target: T2, Tyrosine-protein phosphatase non-receptor type 12 (Homo sapiens, UniProt Q05209); experiment: SAR Selectivity Analysis of small molecule inhibitors of PEST using pCAP in a fluorescence assay. [Related pubchem assays (depositor defined):AID1779, AID1784, AID2135]; format: functional
T2 sequence (Q05209 whole entry): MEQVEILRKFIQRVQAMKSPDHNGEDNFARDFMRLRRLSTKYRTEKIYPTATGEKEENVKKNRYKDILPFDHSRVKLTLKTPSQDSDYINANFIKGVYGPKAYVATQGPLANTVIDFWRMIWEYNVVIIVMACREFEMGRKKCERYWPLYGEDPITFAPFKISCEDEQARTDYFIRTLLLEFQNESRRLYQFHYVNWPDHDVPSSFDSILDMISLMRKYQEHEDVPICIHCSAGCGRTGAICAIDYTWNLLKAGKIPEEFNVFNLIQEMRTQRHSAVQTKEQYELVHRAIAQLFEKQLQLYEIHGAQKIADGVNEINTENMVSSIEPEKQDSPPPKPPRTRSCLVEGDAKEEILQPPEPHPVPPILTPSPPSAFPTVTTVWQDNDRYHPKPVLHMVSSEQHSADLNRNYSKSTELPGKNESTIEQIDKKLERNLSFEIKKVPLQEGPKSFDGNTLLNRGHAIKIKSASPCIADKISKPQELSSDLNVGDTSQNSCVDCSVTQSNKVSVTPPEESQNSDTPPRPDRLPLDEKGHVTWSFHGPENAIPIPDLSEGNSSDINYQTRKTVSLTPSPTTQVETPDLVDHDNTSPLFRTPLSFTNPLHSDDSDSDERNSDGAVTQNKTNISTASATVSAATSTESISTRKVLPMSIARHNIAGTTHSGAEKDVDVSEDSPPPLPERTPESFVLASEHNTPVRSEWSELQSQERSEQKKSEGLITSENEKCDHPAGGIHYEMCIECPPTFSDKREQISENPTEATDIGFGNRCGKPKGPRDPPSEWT

[4] = target: T3, Tyrosine-protein phosphatase non-receptor type 22 (Homo sapiens, UniProt Q9Y2R2); experiment: SAR LYP1 Fluorescent Assay using OMFP substrate for In Vitro dose response studies - Set 3. [Related pubchem assays (depositor defined):AID1779, AID1784, AID2140, AID2686]; format: functional
T3 sequence (Q9Y2R2 whole entry): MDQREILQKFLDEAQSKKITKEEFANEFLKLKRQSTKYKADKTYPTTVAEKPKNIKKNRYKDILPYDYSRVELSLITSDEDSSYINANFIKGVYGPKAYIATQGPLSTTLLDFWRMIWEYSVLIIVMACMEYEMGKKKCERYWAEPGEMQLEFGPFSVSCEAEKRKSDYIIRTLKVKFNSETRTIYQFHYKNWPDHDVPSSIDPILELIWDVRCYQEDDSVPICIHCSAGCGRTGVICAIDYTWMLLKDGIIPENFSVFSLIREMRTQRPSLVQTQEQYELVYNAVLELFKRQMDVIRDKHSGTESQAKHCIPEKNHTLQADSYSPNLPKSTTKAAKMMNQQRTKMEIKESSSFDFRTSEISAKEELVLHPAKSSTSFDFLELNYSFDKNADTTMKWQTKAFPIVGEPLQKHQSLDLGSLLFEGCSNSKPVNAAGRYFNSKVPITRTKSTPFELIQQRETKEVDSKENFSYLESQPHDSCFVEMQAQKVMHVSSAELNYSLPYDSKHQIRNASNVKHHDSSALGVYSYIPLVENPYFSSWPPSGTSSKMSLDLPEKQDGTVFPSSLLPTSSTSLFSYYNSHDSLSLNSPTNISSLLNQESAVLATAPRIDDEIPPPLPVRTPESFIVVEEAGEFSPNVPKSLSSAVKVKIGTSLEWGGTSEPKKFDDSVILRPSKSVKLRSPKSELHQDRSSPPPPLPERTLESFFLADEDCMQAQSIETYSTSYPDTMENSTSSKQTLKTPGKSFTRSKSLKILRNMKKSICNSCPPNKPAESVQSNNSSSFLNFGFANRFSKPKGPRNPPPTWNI

[5] = target: T4, Tyrosine-protein phosphatase non-receptor type 7 (Homo sapiens, UniProt P35236); experiment: HePTP (PTPN7) phosphatase inhibitor potency, SAR follow-up, biochemical, set 2 (AID 449736); format: functional
T4 sequence (P35236 whole entry): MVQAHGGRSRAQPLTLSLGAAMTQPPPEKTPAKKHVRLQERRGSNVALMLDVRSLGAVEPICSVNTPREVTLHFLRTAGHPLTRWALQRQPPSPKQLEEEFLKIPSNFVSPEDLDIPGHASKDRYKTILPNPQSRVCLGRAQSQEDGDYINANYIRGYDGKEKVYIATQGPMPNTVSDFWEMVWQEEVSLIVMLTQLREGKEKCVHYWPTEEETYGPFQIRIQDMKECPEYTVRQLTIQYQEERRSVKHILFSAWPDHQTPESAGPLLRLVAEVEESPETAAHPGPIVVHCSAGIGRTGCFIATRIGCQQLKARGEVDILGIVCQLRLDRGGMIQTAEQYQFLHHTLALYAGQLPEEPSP

[6] = target: T3, Tyrosine-protein phosphatase non-receptor type 22; experiment: LYP (PTPN22) phosphatase inhibitor potency, SAR follow-up, biochemical, pCAP fluorogenic substrate, fluorescence, set 3 (AID 449727); format: functional
[7] = target: G-protein coupled receptor 55 (Homo sapiens, UniProt Q9Y2T6); experiment: GPR55 antagonists, SAR follow-up, counter-screen for GPR35 antagonist project, imaging, image-based (AID 2397); format: functional
[8] = target: T5, Delta-type opioid receptor (Homo sapiens, UniProt P41143); experiment: HTS Image-Based Screen for Antagonists of the DOR Receptor. [Related pubchem assays (depositor defined):AID1777, AID1785, AID1786, AID2133]; format: functional
[9] = target: T6, Mu-type opioid receptor (Homo sapiens, UniProt P35372); experiment: HTS Image-Based Screen for Agonists of the MOR Receptor. [Related pubchem assays (depositor defined):AID1777, AID1785, AID1786, AID2133]; format: functional
[10] = target: T5, Delta-type opioid receptor; experiment: HTS Image-Based Screen for Agonists of the DOR Receptor. [Related pubchem assays (depositor defined):AID1777, AID1786, AID2133]; format: functional
[11] = target: T7, Kappa-type opioid receptor (Homo sapiens, UniProt P41145); format: functional
[12] = target: T7, Kappa-type opioid receptor; format: functional; remark: listed apart in the source
[13] = target: T7, Kappa-type opioid receptor; experiment: SAR analysis of small molecule agonists of the kappa opioid receptor via a luminescent beta-arrestin assay. [Related pubchem assays (depositor defined):AID1777, AID1786, AID1966, AID2133, AID2136, AID2348, AID2352, AID2357, AID2359, AID2370, AID2420, AID2478, AID2491, AID2492, AID2493, AID2497, AID2498, AID2500, AID449737, AID488822, AID488842]; format: functional
[14] = target: T6, Mu-type opioid receptor; experiment: MOR agonists by imaging, SAR follow-up, image-based (AID 2352); format: functional
[15] = target: T5, Delta-type opioid receptor; experiment: DOR agonists, SAR follow-up, image-based (AID 2370); format: functional
[16] = target: T7, Kappa-type opioid receptor; experiment: KOR antagonists by imaging, SAR follow-up, image-based (AID 2348); format: functional
[17] = target: T6, Mu-type opioid receptor; experiment: MOR antagonists, SAR follow-up, image-based (AID 2420); format: functional;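 further: compounds added before stimulation of receptor with agonist DAMGO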
[18] = target: T7, Kappa-type opioid receptor; experiment: KOR agonist analogs, imaging readout, SAR follow-up, image-based (AID 2359); format: functional
[19] = target: T5, Delta-type opioid receptor; experiment: DOR antagonists, SAR follow-up, image-based (AID 2357); format: functional

T6 sequence (P35372 whole entry): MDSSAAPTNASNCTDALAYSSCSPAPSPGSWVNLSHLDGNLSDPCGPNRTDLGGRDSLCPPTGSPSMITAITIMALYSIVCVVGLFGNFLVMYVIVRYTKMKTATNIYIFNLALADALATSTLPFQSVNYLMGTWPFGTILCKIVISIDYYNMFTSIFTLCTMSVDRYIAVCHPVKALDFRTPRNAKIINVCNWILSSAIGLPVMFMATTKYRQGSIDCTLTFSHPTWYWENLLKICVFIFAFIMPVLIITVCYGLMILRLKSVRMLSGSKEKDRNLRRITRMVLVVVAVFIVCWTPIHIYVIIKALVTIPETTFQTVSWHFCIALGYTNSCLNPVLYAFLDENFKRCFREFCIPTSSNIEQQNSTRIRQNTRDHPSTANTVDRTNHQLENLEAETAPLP
T5 sequence (P41143 whole entry): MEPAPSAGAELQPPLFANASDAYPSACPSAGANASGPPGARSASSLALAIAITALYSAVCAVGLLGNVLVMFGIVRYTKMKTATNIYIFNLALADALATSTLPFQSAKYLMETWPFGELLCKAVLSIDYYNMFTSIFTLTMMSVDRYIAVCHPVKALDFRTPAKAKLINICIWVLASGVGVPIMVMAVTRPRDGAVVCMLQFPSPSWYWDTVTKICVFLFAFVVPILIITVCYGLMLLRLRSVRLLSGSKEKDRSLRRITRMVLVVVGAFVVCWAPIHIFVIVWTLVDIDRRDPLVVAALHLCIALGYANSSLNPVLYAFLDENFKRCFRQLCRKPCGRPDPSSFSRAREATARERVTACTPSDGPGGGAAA
T7 sequence (P41145 whole entry): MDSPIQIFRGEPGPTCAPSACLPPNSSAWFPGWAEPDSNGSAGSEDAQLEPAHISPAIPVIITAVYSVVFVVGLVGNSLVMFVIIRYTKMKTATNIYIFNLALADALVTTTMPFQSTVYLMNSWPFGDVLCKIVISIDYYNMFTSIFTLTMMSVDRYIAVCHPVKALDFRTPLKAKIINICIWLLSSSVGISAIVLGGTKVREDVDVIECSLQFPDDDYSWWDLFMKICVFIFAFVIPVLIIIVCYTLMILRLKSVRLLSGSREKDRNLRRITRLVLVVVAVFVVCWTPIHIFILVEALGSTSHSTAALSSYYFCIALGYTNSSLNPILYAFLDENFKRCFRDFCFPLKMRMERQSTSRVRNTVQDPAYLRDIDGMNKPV
T1 sequence (Q9HC97 whole entry): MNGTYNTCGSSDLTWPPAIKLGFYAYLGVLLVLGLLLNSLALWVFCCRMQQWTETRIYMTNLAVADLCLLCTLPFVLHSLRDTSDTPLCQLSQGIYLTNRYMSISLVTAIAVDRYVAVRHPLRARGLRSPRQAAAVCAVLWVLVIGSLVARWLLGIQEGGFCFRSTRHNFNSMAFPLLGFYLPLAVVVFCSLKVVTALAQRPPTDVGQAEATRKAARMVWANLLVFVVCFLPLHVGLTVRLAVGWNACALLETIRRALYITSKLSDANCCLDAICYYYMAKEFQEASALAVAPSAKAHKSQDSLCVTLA
Chain of G-protein coupled receptor 55 (Q9Y2T6 whole entry): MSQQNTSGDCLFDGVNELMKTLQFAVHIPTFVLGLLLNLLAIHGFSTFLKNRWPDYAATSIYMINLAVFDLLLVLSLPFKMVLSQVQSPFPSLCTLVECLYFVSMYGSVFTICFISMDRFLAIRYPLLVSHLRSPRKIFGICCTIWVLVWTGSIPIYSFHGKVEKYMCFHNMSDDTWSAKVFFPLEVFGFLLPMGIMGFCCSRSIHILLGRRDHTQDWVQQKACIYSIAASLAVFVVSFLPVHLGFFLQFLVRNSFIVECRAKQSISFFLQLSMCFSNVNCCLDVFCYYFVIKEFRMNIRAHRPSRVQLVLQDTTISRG

IC50 [1]	IC50 [2]	IC50 [3]	IC50 [4]	IC50 [5]	IC50 [6]	IC50 [7]	IC50 [8]	EC50 [9]	EC50 [10]	EC50 [11]	EC50 [12]	EC50 [13]	EC50 [14]	EC50 [15]	IC50 [16]	IC50 [17]	EC50 [18]	IC50 [19]	Compound
1.16 µM (active)	3.29 µM (active)	15.8 µM (active)	72.2 µM (active)	1.89 µM (active)	79.5 µM (active)	> 32 µM (inactive)	–	–	–	–	–	–	–	–	–	–	–	–	O=C(CCCN1C(=O)/C(=C\c2ccccc2)SC1=S)Nc1ccc(C(=O)O)cc1
–	–	–	–	–	–	–	> 32 µM (inactive)	> 32 µM (inactive)	> 32 µM (inactive)	4.27 µM	3.16 µM	8.1 µM (active)	> 32 µM (inactive)	> 32 µM (inactive)	> 32 µM (inactive)	> 32 µM (inactive)	5.31 µM (active)	> 32 µM (inactive)	CCCCN(Cc1cc2ccccc2nc1O)C(=O)c1ccccn1
